The target of this experiment is gelatinase B (Homo sapiens, UniProt P14780). Briefly: Gelatinase B inhibiting activity of synovial fluid recovered after intraarticular administration. In kind it is in vivo, rats. On the set-up: purchased Roche Diagnostics Co., Ltd. The conditions noted are these: Fig. 7. The protocol: The following agents (1 to 3) were administered into right knee joints of 9-10 week old rats (n=4 to 10) and the animals were sacrificed at time intervals; the joint cavities were washed with a total 0.5 ml of a physiological saline to recover a synovial fluid. • Agent 1: 30 nmol of compound 1 • Agent 2: a mixture of 30 nmol of compound 1 and 0.3 mg of HA • Agent 3: 0.3 mg of "conjugate 4" (having compound 1 bound in an amount equivalent to 30 nmol)
By using a kit for measuring gelatinase activity manufactured by Roche Diagnostics, the inhibiting activity of the synovial fluid against gelatinase B was calculated according to the following formula. Gelatinase B Inhibition Activity (%) = [(Enzymatic Activity in the Absence of Synovial Fluid - Enzymatic Activity in the Presence of Added Synovial Fluid)/Enzymatic Activity in the Absence of Synovial Fluid] x 100 [formula]
The results were shown by a mean value ± standard deviation. The gelatinase B inhibiting activity of the synovial fluid from the group administered compound 1 alone and the group administered the mixture of compound 1 and HA decreased to 20% two hours after administration and to less than 5% 17 hours after administration while in the group administered "conjugate 4" about 50% of the gelatinase B inhibiting activity remained 17 hours after administration.

gelatinase B, sequence (P14780 94-707, species assumed): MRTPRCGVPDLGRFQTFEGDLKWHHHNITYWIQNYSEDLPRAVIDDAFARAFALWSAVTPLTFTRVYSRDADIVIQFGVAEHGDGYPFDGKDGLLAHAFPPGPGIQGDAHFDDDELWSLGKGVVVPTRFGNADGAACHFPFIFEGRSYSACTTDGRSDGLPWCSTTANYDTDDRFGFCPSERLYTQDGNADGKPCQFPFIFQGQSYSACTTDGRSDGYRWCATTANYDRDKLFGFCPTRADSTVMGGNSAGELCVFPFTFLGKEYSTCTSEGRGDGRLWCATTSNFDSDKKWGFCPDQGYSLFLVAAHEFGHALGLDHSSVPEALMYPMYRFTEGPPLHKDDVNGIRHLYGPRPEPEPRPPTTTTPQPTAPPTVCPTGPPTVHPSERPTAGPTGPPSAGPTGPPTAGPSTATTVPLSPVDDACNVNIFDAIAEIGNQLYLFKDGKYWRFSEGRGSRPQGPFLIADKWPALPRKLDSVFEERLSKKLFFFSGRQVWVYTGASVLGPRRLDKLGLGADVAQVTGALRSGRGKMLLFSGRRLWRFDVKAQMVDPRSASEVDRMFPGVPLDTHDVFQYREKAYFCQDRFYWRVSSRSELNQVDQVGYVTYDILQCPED

Take `CNC(=O)[C@H](Cc1c[nH]c2ccccc12)NC(=O)C(CC(=O)NO)CC(C)C` (stereo partly drawn) [compound 1, N-[2-isobutyl-3-(N'-hydroxycarbonylamido)propanoyl]-L-tryptophan methylamide]: the “gelatinase B inhibiting activity of the synovial fluid” value by setting is: (17 hours after administration into rat right knee joint) “less than 5%”; (two hours after administration into rat right knee joint) 20%.
